Measured values published in PubChem BioAssay AID463206 (Broad Institute, 2010).
Calls of active or inactive are those of the source.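 Rule for the calls: active = caspase luminescence falls with dose and the half-maximal concentration AC50 from the fitted curve is at or below a set limit; inconclusive = flat fit at 30 to 70% signal loss, or invalid fit; inactive = AC50 above the limit, or signal rises instead.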

Test system: INS-1E cytokine-induced caspase-3/7, Caspase-Glo luminescence, 48 h
Test: suppression of cytokine-driven beta-cell apoptosis – INS-1E rat cells, luminescence, orthogonal assay for beta-cell apoptosis protection project, dose response (AID 463206)

| Structure (SMILES) | AC50 |
| --- | --- |
| Cc1cc(C(=O)c2ccc3ccccc3c2)c(C)o1 | > 26 µM (inactive) |
| CCN1CCN(c2c(Cl)cccc2NC(=O)c2ccc([N+](=O)[O-])o2)CC1 | > 26 µM (inactive) |
| CCOC(=O)N1CCN(c2ncnc3c2[nH]c2ccc(F)cc23)CC1 | > 26 µM (inactive) |
| Cc1occc1C(=O)N/N=C/c1c(O)ccc2ccccc12 | > 26 µM (inactive) |
| c1ccc(CSc2ccc(-c3ccccn3)nn2)cc1 | > 26 µM (inactive) |
| CCOC(=O)c1ccc(NC(=O)Cn2cnc3cc(C)c(C)cc32)cc1 | > 26 µM (inactive) |
| Cc1[nH]n(-c2ccccc2)c(=O)c1/C=N\NC(=O)C1COc2ccccc2O1 (centres undefined) | > 26 µM (inactive) |
| CCCCCCc1cc2cc(C(=O)Nc3cccc(OC)c3)c(=O)oc2cc1O | > 26 µM (inactive) |
| CN(CC1CCCO1)S(=O)(=O)c1ccc(C(=O)Nc2nc(-c3ccccn3)cs2)cc1 (centres undefined) | > 26 µM (inactive) |
| CCCCCn1c(=O)c(C(=O)NC(C)c2ccccc2)c(O)c2ccccc21 (centres undefined) | > 26 µM (inactive) |
| CC(C)(C)c1ccc(-n2ncc3c2CCCC3NC(=O)C2(C(N)=O)CC2)cc1 (centres undefined) | > 26 µM (inactive) |
| CC(=O)Oc1c(C)cc(Cl)cc1C(=O)Nc1ccc([N+](=O)[O-])cc1Cl | > 26 µM (inactive) |
| CCCOc1ccc(C(=O)C(CN2CCOCC2)c2ccccc2)cc1 (centres undefined) | > 12 µM (inactive) |
| O=C(c1cc(COc2ccc3ncccc3c2)on1)N1CCCCCC1 | > 26 µM (inactive) |
| Cc1cc(/C=N/n2cnnc2)c(C)n1-c1ccc(OCc2ccc(Cl)cc2)cc1 | > 26 µM (inactive) |
| C/C(=N\NC(=O)c1ccccc1Cl)c1ccccn1 | > 26 µM (inactive) |
| O=C(Nc1ccc(Cl)cc1)Nc1ccc(N2CCCC2)c(S(=O)(=O)Nc2ccccc2Cl)c1 | > 26 µM (inactive) |
| Cc1cc(N/N=C/c2ccc(F)cc2)nc(-n2nc(C)cc2C)n1 | > 26 µM (inactive) |
| N#Cc1c2ccc([N+](=O)[O-])cc2[n+]([O-])n1-c1ccccc1 | > 26 µM (inactive) |
| Cc1ccc(NC(=O)NCC2CCN(Cc3cccc(Cl)c3)CC2)cc1Cl | > 26 µM (inactive) |
| O=C([O-])c1cc(-c2ccccc2)cc(-c2ccccc2)[n+]1Cc1ccccc1 | > 26 µM (inactive) |
| CCc1c(C)sc2nc(C(C)C)nc(SCC(=O)N3CCc4ccccc4C3)c12 | > 26 µM (inactive) |
| c1ccc(CNc2nc(NCc3ccccc3)c3ccccc3n2)cc1 | > 26 µM (inactive) |
| Cc1ccc(C)c(NC(=S)NC(NC(=O)Cc2cccc3ccccc23)C(Cl)(Cl)Cl)c1 (centres undefined) | > 26 µM (inactive) |

| Structure (SMILES) | AC50 |
| --- | --- |
| COCCCNC(=O)Cn1nnc(-c2ccc(NC(=O)c3cccnc3)cc2)n1 | > 26 µM (inactive) |
| O=S(=O)([N-]c1nc2ccccc2nc1-[n+]1ccc(Cc2ccccc2)cc1)c1ccc(Br)s1 | > 26 µM (inactive) |
| CCOC(=O)c1sc(NC(=O)Nc2cccc(Cl)c2)cc1C | > 26 µM (inactive) |
| O=C(CCC(=O)Nc1ccc(Cl)cc1Cl)N/N=C/c1ccc([N+](=O)[O-])o1 | > 26 µM (inactive) |
| CN(C)c1cc[n+](CC(=O)c2ccc(-c3ccccc3)cc2)cc1 | > 26 µM (inactive) |
| CCN1CCN(Cc2ccc(NC(=O)c3cc(NC(=O)c4cnn(-c5ccccc5)c4N)cc(OC)c3)cc2C(F)(F)F)CC1 | > 26 µM (inactive) |
| CCc1ccc(-c2cc(C(F)(F)F)n3nc(C(=O)Nc4cnn(Cc5ccc(C)cc5)c4)cc3n2)s1 | > 26 µM (inactive) |
| CC(C(c1cccs1)c1c(N)n(C)c(=O)n(C)c1=O)[N+](=O)[O-] (centres undefined) | > 26 µM (inactive) |
| O=C(NC(c1ccc(Cl)cc1)c1cc(Cl)c2cccnc2c1O)c1cccnc1 (centres undefined) | > 26 µM (inactive) |
| O=S1(=O)C=C(Sc2nnc(-c3ccccc3)o2)c2ccccc21 | > 26 µM (inactive) |
| FC(F)(F)c1cnc(NNC(=S)Nc2ccc(Cl)cc2)c(Cl)c1 | > 26 µM (inactive) |
| CCCCCCCC[n+]1c(C)n(-c2ccccc2)c2ccc(NC(C)=O)cc21 | > 26 µM (inactive) |
| CCN(CC)c1ccc(/C=N/NC(=O)c2ccc3nc[nH]c3c2)c(O)c1 | > 26 µM (inactive) |
| CCOC(=O)/C(=C\c1ccccc1)C(=O)c1cc(C(C)=O)c(Nc2ccccc2)s1 | > 26 µM (inactive) |
| C/C(=N\N1C(=O)c2ccccc2NC1c1ccccc1)c1ccccc1O (centres undefined) | > 26 µM (inactive) |
| C/C(=N\NC(=O)c1cc(-c2cccnc2)nc2ccccc12)c1ccccc1O | > 26 µM (inactive) |
| CC(=O)Nc1ccc(Nc2c3ccccc3nc3ccccc23)cc1 | 8.76 µM |
| O=C(Nc1nc(-c2ccccn2)cs1)c1ccc(F)c(S(=O)(=O)N2CCOCC2)c1 | > 26 µM (inactive) |
| O=C(Nc1ccc(OC(F)(F)F)cc1)Nc1cccc([N+](=O)[O-])c1 | > 26 µM (inactive) |
| Cc1ccc(C2CC(c3ccc(C)cc3)n3nc(N)nc3N2)cc1 (centres undefined) | > 26 µM (inactive) |
| CCOc1ccc(Nc2nc(Cc3nnc(SCC(=O)c4ccc(C)c(C)c4)o3)cs2)cc1 | > 26 µM (inactive) |
| CCCCCCCC(=O)Nc1ccc(C(=O)N/N=C/c2cccc([N+](=O)[O-])c2)cc1 | > 26 µM (inactive) |
| c1ccc(CCNc2nc(-c3ccccn3)nc3ccccc23)cc1 | > 26 µM (inactive) |
| CC(C)Nc1ccc(Nc2ccccc2)cc1 | > 26 µM (inactive) |

| Structure (SMILES) | AC50 |
| --- | --- |
| CCc1nc(N2CCN(C(C)=O)CC2)c2c3c(sc2n1)CC(C(C)(C)C)CC3 (centres undefined) | > 26 µM (inactive) |
| COc1ccc(OC)c(NC(=O)CSc2ncnc3c2cnn3-c2ccccc2Cl)c1 | > 26 µM (inactive) |
| C=CCn1nc([N+](=O)[O-])nc1Sc1cccc2cccnc12 | > 26 µM (inactive) |
| COC(=O)C1=C(C)N(Cc2ccccc2)C(=NCc2ccccc2)N[C@H]1c1cccc(C(F)(F)F)c1 | > 26 µM (inactive) |
| Oc1c(C(Nc2cccc(C(F)(F)F)c2)c2ccncc2)ccc2cccnc12 (centres undefined) | > 26 µM (inactive) |
| Cc1ccc(C(=O)N2N=C(c3ccc(Br)cc3)CC2c2ccccc2O)cc1 (centres undefined) | > 26 µM (inactive) |
| [O-][n+]1onc2c1CCc1c-2nn(-c2ccccc2Cl)[n+]1[O-] | 15.9 µM |
| Clc1ccccc1Nc1nnc(-c2ccncc2)s1 | > 26 µM (inactive) |
| O=S(=O)(Nc1cc(Sc2cccc3cccnc23)c(O)c2ccccc12)c1ccc(F)cc1 | > 26 µM (inactive) |
| N/C(=N\OC(=O)c1cccc(Cn2cc(C(F)(F)F)ccc2=O)c1)c1ccccc1 | > 26 µM (inactive) |
| Cc1ccccc1OCC(O)CNC1CCC(NCC(O)COc2ccccc2C)CC1 (centres undefined) | > 26 µM (inactive) |
| CN(Cc1ccccc1)C(=O)c1nc2ccccn2c1CN1CCCC1c1nccs1 (centres undefined) | > 26 µM (inactive) |
| O=[N+]([O-])c1ccc(N2CCN(C(=S)NCc3ccc(Cl)cc3)CC2)cc1 | > 26 µM (inactive) |
| Cc1cccc(/C=C/C(=O)c2ccc([N+](=O)[O-])o2)c1 | > 26 µM (inactive) |
| COc1ccc(C(=O)NCC(=O)N/N=C/c2ccc([N+](=O)[O-])s2)cc1OC | > 26 µM (inactive) |
| Cc1cc2nc(-c3ccc(NC(=O)c4cccnc4)cc3)oc2cc1C | > 26 µM (inactive) |
| CCCCCN=Cc1c(C)[nH]n(-c2nc3ccccc3s2)c1=O | > 26 µM (inactive) |
| CN(C)C(=O)c1ccc(NC(=O)c2cccc(S(=O)(=O)N3CCCCCC3)c2)cc1 | > 26 µM (inactive) |
| N#CCC(=O)N/N=C/c1cc(-c2ccccc2)n(-c2ccc(Cl)cc2)c1-c1ccccc1 | > 26 µM (inactive) |
| O=C(COc1ccc2ccccc2c1)N1CCN(Cc2c[nH]c3ccccc23)CC1 | > 26 µM (inactive) |
| Cc1cc(C)c2nc(NNC(=O)c3ccc(S(=O)(=O)N4CC(C)CC(C)C4)cc3)sc2c1 (centres undefined) | > 26 µM (inactive) |
| CC1(C(=O)OCC(=O)N2c3ccccc3Sc3ccccc32)CC1(Cl)Cl (centres undefined) | > 26 µM (inactive) |
| COc1ccc(C(=O)CSc2n[nH]c(=O)n2Cc2ccco2)cc1 | > 26 µM (inactive) |
| CCC1(c2ccc(F)cc2)NC(=O)N(CC(=O)Nc2ccc(-c3nc4ccc(C)cc4s3)cc2)C1=O (centres undefined) | > 26 µM (inactive) |

| Structure (SMILES) | AC50 |
| --- | --- |
| Oc1ccc(N=Nc2ccc3c(c2)OCCO3)c2ncccc12 | > 26 µM (inactive) |
| Oc1c(N=Nc2ccccn2)ccc2ccccc12 | > 26 µM (inactive) |
| C=CCc1cccc(/C=N/NC(=O)c2ccc3nc[nH]c3c2)c1O | > 26 µM (inactive) |
| Cc1ccc(S(=O)(=O)c2ccc([N+](=O)[O-])cn2)cc1 | > 26 µM (inactive) |
| COc1cc(OC)c2cc(C(=O)N/N=C/c3ccccc3O)[nH]c2c1 | > 26 µM (inactive) |
| CCN(CC)S(=O)(=O)c1cc(OC)ccc1N=Nc1ccc(O)c2ncccc12 | > 26 µM (inactive) |
| O=C1C(Cl)=C(Nc2ccc3cn[nH]c3c2)C(=O)c2ccccc21 | > 26 µM (inactive) |
| Clc1ccc(CSc2ccc(-c3ccccn3)nn2)cc1 | > 26 µM (inactive) |
| O=C(NC1=C(Nc2ccc(Cl)cc2)C(=O)c2ccccc2C1=O)c1ccccc1 | > 26 µM (inactive) |
| COc1cccc2sc(Nc3nc(-c4ccccn4)cs3)nc12 | > 26 µM (inactive) |
| Cc1cccc(C(=O)Nc2ccc(C(=O)/C=C/c3cccnc3)cc2)c1 | > 26 µM (inactive) |
| Cc1ccc(O)c(N=Nc2nccs2)c1 | > 26 µM (inactive) |
| c1ccc2c(NCCCN3CCOCC3)c3ccccc3nc2c1 | 7.15 µM |
| CC[N+](C)(CC)CCC(c1ccccc1)C1CCCCC1 (centres undefined) | > 26 µM (inactive) |
| Cc1ccc([N+](=O)[O-])cc1N(CC(=O)Nc1ccc(S(=O)(=O)Nc2cccc(C(F)(F)F)c2)cc1)S(C)(=O)=O | > 26 µM (inactive) |
| COc1ccccc1OCCCCOc1ccccc1C(C)=O | > 26 µM (inactive) |
| CC(=O)N(C)C1=C(N2CCOCC2)C(=O)c2ccccc2C1=O | > 26 µM (inactive) |
| Cc1ccc(-n2c(-c3ccccc3)c[n+]3c2CCC3)cc1 | > 26 µM (inactive) |
| CCOc1cc(/C=N/NC(=O)c2cc(-c3cccc(OC)c3)nc3ccccc23)ccc1O | > 26 µM (inactive) |
| C#CCOCCOCCOCCNc1nc(N2CCN(C(=O)CCCCCCCCCCNC(=O)Cn3cc(CCCCCN)nn3)CC2)nc(N2CCN(C(=O)CCCCCCCCCCNC(=O)[C@H]([C@@H](C)CC)n3cc(CCCCN=C(N)N)nn3)CC2)n1 | > 26 µM (inactive) |
| O=C(Nc1ccc(-c2noc(-c3cccs3)n2)cc1)c1cccnc1 | > 26 µM (inactive) |
| O=C(CCl)N(c1ccccc1)C1CCCCC1 | > 26 µM (inactive) |
